In general, logP refers to a log measure of how a compound divides between an organic and an aqueous phase.

Each structure is given as a SMILES string.

In ChEMBL document CHEMBL1125820, “Structure-activity relationship of mutagenic aromatic and heteroaromatic nitro compounds. Correlation with molecular orbital energies and hydrophobicity” (J Med Chem, 1991) one finds logP and Activity data, which are given here for 65 molecules.

Data set [1] in a line: Partition coefficient (logP). To be noted: octanol/water.
For the next data set, the system named is Salmonella typhimurium. Nature of the data set: Mutagenic activity in an Ames test on Salmonella Typhimurium TA98; Activity is log of revertants/nmol. Format: functional, Salmonella enterica subsp. enterica serovar Typhimurium. Further details: scale not given here. Background: The Ames test uses bacterial strains that need an amino acid and regain growth without it when mutated back.

With `Nc1ccc(-c2ccc([N+](=O)[O-])cc2)cc1`, the logP in data set [1] came to 2.68. In turn, `CC(=O)Oc1cc([N+](=O)[O-])c2ccc3cccc4ccc1c2c43` had a logP in data set [1] of 4.42. In addition, the Activity in the data set on Salmonella typhimurium turned out to be 4.22.

`O=Cc1ccc([N+](=O)[O-])cc1` displayed a logP in data set [1] of 1.56.

In data set [1], `O=[N+]([O-])c1cc2cccc3ccc4cccc1c4c32` displayed a logP of 4.69. For `O=[N+]([O-])C1=CC=CC2Nc3ccccc3NC12` (configuration not stated), the logP in data set [1] is 2.52. Further, the Activity in the data set on Salmonella typhimurium is recorded as 0.87. Consider `O=[N+]([O-])c1cccc2cc[nH]c12`, for which the logP in data set [1] turned out to be 2.13. Molecule `O=[N+]([O-])c1cccc(F)c1` displayed a logP in data set [1] of 1.9. Consider `O=[N+]([O-])c1ccc2c3ccccc3c3ccccc3c2c1`, for which the logP in data set [1] came to 5.41. In addition, the Activity in the data set on Salmonella typhimurium came out at 4.09. `O=[N+]([O-])c1ccc2c(c1)CCN2`: in data set [1], the logP was found to be 2.07. `O=[N+]([O-])c1ccc2c3c(cccc13)-c1cc3ccccc3cc1-2` displayed a logP in data set [1] of 5.87. This molecule also returned an Activity with Salmonella typhimurium of 2.76. `Nc1ccc2ccc3ccc([N+](=O)[O-])c4ccc1c2c34` came in with a log partition coefficient (logP) in data set [1] of 3.63. Besides, in the data set with Salmonella typhimurium, the Activity turned out to be 2.43. In the case of `O=[N+]([O-])c1ccc2c(c1)C=CC2`, the logP in data set [1] is 2.74. Further, the Activity with Salmonella typhimurium is 0.08. In the case of `O=[N+]([O-])c1ccc2nc3ccccc3nc2c1`, the logP in data set [1] worked out at 2.52.

Take `Cn1ccc2cc([N+](=O)[O-])ccc21`: the logP in data set [1] was found to be 2.5. `O=[N+]([O-])c1cc2c3c(c1)CCc1cc([N+](=O)[O-])cc(c1-3)CC2` showed a logP in data set [1] of 5.02. In the data set on Salmonella typhimurium, this molecule had an Activity of 3.5. The like results for `O=[N+]([O-])c1ccc2c(c1)Oc1cc(Cl)c(Cl)cc1O2` were, in that order, 6.24 and 1.73.

On to `O=[N+]([O-])c1ccc(Cl)cc1Cl`, for which, in data set [1], the logP was found to be 3.09. The molecule `O=[N+]([O-])c1ccc2cccc3c2c1C=C3` yielded a logP in data set [1] of 3.36. In the data set on Salmonella typhimurium, this molecule came in with an Activity of 1.77. On to `Cc1ccccc1-c1ccc([N+](=O)[O-])c(C)c1`, for which the logP in data set [1] came out at 4.49. The Activity in the data set with Salmonella typhimurium is -0.84. With `O=[N+]([O-])c1c2cccc(O)c2cc2c1ccc1ccccc12`, the logP in data set [1] is 5.06.

In data set [1], `O=[N+]([O-])c1cc2c3c(ccc([N+](=O)[O-])c3c1)-c1ccccc1-2` registered a logP of 4.44. In the data set on Salmonella typhimurium, this molecule returned an Activity of 3.78. In turn, `O=[N+]([O-])c1cccc(Cl)c1` displayed a logP in data set [1] of 2.41.

`O=[N+]([O-])c1ccc2c3ccccc3c3cccc4ccc1c2c43` showed a log partition coefficient (logP) in data set [1] of 5.87.

`COc1cc([N+](=O)[O-])c2ncccc2c1` came in with a logP in data set [1] of 1.87. Moreover, the Activity in the data set with Salmonella typhimurium was -1.21. In data set [1], `O=[N+]([O-])c1ccc2c3c(c4c([N+](=O)[O-])ccc5ccc1c2c54)CCCC3` gave a logP of 6.01. This molecule returned an Activity in the data set with Salmonella typhimurium of 2.41. In the case of `O=[N+]([O-])c1c2c(cc3ccccc13)C=CC(O)C2O` (configuration not stated), the logP in data set [1] came out at 1.38. `Cc1cc(-c2ccccc2)ccc1[N+](=O)[O-]` had a logP in data set [1] of 3.99. In the data set on Salmonella typhimurium, this molecule had an Activity of -0.1. As for `O=[N+]([O-])c1ccc(Cl)c(Cl)c1`, in data set [1], the logP was found to be 3.12. `Nc1c(Br)cc([N+](=O)[O-])cc1[N+](=O)[O-]` displayed a logP in data set [1] of 2.78. In the data set with Salmonella typhimurium, this molecule gave an Activity of -1.32.

`O=[N+]([O-])c1cccc2cccc([N+](=O)[O-])c12` showed a logP in data set [1] of 2.52. Also, the Activity in the data set on Salmonella typhimurium came out at 0.9. The molecule `O=[N+]([O-])c1c2ccccc2cc2c3c(ccc12)C(O)C(O)C=C3` (configuration not stated) gave a lipophilicity (logP) in data set [1] of 2.55.

Turning to `O=[N+]([O-])c1cccc2c3ccccc3c3ccccc3c12`, in data set [1], the logP is 5.41. As to `O=[N+]([O-])c1cccc2cccnc12`, the logP in data set [1] was found to be 1.44. In the case of `O=[N+]([O-])c1ccc2c(c1)Cc1cc([N+](=O)[O-])ccc1-2`, in data set [1], the logP turned out to be 3.35. The same molecule registered an Activity in the data set on Salmonella typhimurium of 3.22.

In data set [1], `O=[N+]([O-])c1cccc2[nH]ccc12` came in with a logP of 2.13. Consider `O=[N+]([O-])c1c2c(c3ccc4cccc5ccc1c3c45)CCCC2`, for which, in data set [1], the logP was found to be 6.57. Molecule `O=[N+]([O-])c1c2c(cc3ccccc13)C(O)C(O)C=C2` (configuration not stated) returned a logP in data set [1] of 3.4. For the molecule `O=[N+]([O-])c1cc2ccc3ccc4ccc5ccc6ccc1c1c6c5c4c3c21`, in data set [1], the logP amounted to 6.79. In the data set with Salmonella typhimurium, the Activity amounted to 0.45.

On to `CC(=O)c1ccc([N+](=O)[O-])cc1`, for which, in data set [1], the logP came to 1.53. For the molecule `O=[N+]([O-])c1ccc2c3cccc4cccc(c5cccc1c52)c43`, the logP in data set [1] is 5.87. `O=[N+]([O-])c1ccc(F)cc1F` came in with a log partition coefficient (logP) in data set [1] of 1.89. In addition, the Activity in the data set on Salmonella typhimurium is given as -1.66.

As to `O=[N+]([O-])c1ccc2cccc3c2c1-c1ccccc1-3`, in data set [1], the logP was 4.69.

On to `CN1CCc2cc([N+](=O)[O-])ccc21`, for which the logP in data set [1] amounted to 2.86.

For `O=[N+]([O-])c1ccc(-c2ccccc2)cc1`, the logP in data set [1] was found to be 3.77. Further, the Activity with Salmonella typhimurium is recorded as -0.3. Consider `O=[N+]([O-])c1c2c(c3ccc4cccc5ccc1c3c45)CCCC2O` (configuration not stated), for which the logP in data set [1] was 4.78. `Cc1nc2cc([N+](=O)[O-])ccc2[nH]1` had a logP in data set [1] of 1.94. Besides, the Activity with Salmonella typhimurium is recorded as -0.51. In data set [1], `O=[N+]([O-])c1ccc2ccccc2c1` came in with a logP of 3.24. In data set [1], `O=[N+]([O-])c1ccc2ncccc2c1` had a logP of 1.84. In addition, the Activity with Salmonella typhimurium is listed as -1.08. As to `O=[N+]([O-])c1ccc2ccc3c4c(cc5ccc1c2c53)C(O)C(O)C=C4` (configuration not stated), the logP in data set [1] was found to be 3.01. In the data set on Salmonella typhimurium, this molecule gave an Activity of 3.08. The molecule `O=[N+]([O-])c1cc2ccc3cc([N+](=O)[O-])cc4ccc(c1)c2c34` had a logP in data set [1] of 4.44.

In the case of `O=[N+]([O-])c1c2c(cc3c1ccc1ccccc13)C=CC(O)C2O` (configuration not stated), the logP in data set [1] amounted to 2.55. In the case of `O=[N+]([O-])c1ccc2c(c1)Nc1cccc([N+](=O)[O-])c1N2`, in data set [1], the logP stood at 2.29. Moreover, the Activity in the data set on Salmonella typhimurium came to 2.02.

Take `O=[N+]([O-])c1cc([N+](=O)[O-])c2ccc3cccc4ccc1c2c43`: in data set [1], the logP turned out to be 4.44. This molecule also yielded an Activity with Salmonella typhimurium of 5.04. In the same order, the values of `O=[N+]([O-])c1ccc2c(ccc3ccccc32)c1` are 4.23 and 2.11. The molecule `O=[N+]([O-])c1ccc(/C=C/c2ccccc2)cc1` had a logP in data set [1] of 4.18. `O=[N+]([O-])c1cccc2c1-c1cccc3cccc-2c13` returned a logP in data set [1] of 4.69. Besides, the Activity with Salmonella typhimurium is given as 1.87. In data set [1], `Cn1ccc2cccc([N+](=O)[O-])c21` registered a log partition coefficient (logP) of 2.5. As for `O=[N+]([O-])c1ccc2ccc3cccc4c5ccccc5c1c2c34`, the logP in data set [1] turned out to be 5.87. `O=C1c2cc([N+](=O)[O-])ccc2-c2ccc([N+](=O)[O-])cc21` yielded a logP in data set [1] of 2.84. As for `O=[N+]([O-])c1ccccc1F`, the logP in data set [1] amounted to 1.69. With `O=[N+]([O-])c1ccc(Cl)cc1`, in data set [1], the logP is 2.39. In turn, `O=Cc1ccccc1[N+](=O)[O-]` [2-NITROBENZALDEHYDE] displayed an Activity in the data set on Salmonella typhimurium of -1.92. Still for that read-out and setting: with `O=C1OCCN1/N=C/c1ccc([N+](=O)[O-])o1` [FURAZOLIDONE] the figure was 2.24.

Turning to `Cc1ncc([N+](=O)[O-])n1CCO` [METRONIDAZOLE], the logP in data set [1] is -0.02.

Consider `O=C1CN(/N=C/c2ccc([N+](=O)[O-])o2)C(=O)N1` [NITROFURANTOIN], for which the Activity in the data set with Salmonella typhimurium amounted to 1.03.
